Assays:
HEK293 cells = experiment: In vitro cytotoxicity, MTT method, HEK293 cells; type: cell-based; conditions: for HEK293 cell viability: 24 h, MTT
Description: (§1) HepG2, HEK293 and A549 cells were taken in logarithmic growth phase, digested with trypsin to prepare cell suspensions. The cell density was adjusted to 5×10^4 cells/mL, inoculating 180 μL per well in a sterile 96-well cell culture plate, incubating for 24 h at 37° C. in a 5% CO2 incubator. After the cells were attached to the bottom of the well plate, 20 μL of the drug solutions in a concentration gradient were added to each well, and 6 duplicate wells were set up in parallel, including blank group (no cells, no compounds) and control groups (no compounds). After incubating for 24 h at 37° C. in a 5% CO2 constant temperature incubator, 20 μL of 5 g/L MTT solution was added to each well for 4 h. After the incubation, the culture medium in the wells was gently aspirated, 100 μL of DMSO was added to each well, and the cells were shaken at low speed for 10 min on a shaker to fully dissolve the crystals to calculate cell viability. Cell viability (%)=(Sample Group GD Value−Blank Group GD Value)/(Control Group GD Value−Blank Group GD Value)

SARS-CoV-2 3CL^pro = SARS-CoV-2 3CL^pro (Severe acute respiratory syndrome coronavirus 2 (2019-nCoV) (SARS-CoV-2), UniProt P0DTD1); experiment: biochemical; conditions: for IC50: 3CL^pro FRET; for inhibition at 0.0001 µM: Conc 0.1 nM; for inhibition at 0.0001 µM / inhibition at 0.001 µM / inhibition at 0.005 µM / inhibition at 0.01 µM / inhibition at 0.02 µM / inhibition at 0.03 µM / inhibition at 0.05 µM / inhibition at 0.1 µM / inhibition at 0.5 µM / inhibition at 1 µM: read-out: Inhibitory activity on 3CL^pro (inhibition rate); for inhibition at 0.001 µM: Conc 1 nM; for inhibition at 0.005 µM: Conc 5 nM; for inhibition at 0.01 µM: Conc 10 nM; for inhibition at 0.02 µM: Conc 20 nM; for inhibition at 0.03 µM: Conc 30 nM; for inhibition at 0.05 µM: Conc 50 nM; for inhibition at 0.1 µM: Conc 100 nM; for inhibition at 0.5 µM: Conc 500 nM; for inhibition at 1 µM: Conc 1000 nM
HepG2 cells = experiment: In vitro cytotoxicity, MTT method, HepG2 cells; type: cell-based; conditions: for HEPG2 cell viability: 24 h, MTT
Description: as §1

A549 cells = experiment: In vitro cytotoxicity, MTT method, A549 cells; type: cell-based; conditions: for A549 cell viability: 24 h, MTT
Description: as §1

Cn1cc2cc(/N=c3\[nH]c(=O)n(Cc4cnn[nH]4)c(=O)n3Cc3cc(F)c(F)cc3F)c(Cl)cc2n1 [Compound 1]
HEK293 cell viability (HEK293 cells; 1.5625 nM): 99.03% | HEK293 cell viability (HEK293 cells; 3.125 nM): 96.70% | HEK293 cell viability (HEK293 cells; 6.25 nM): 94.02% | HEK293 cell viability (HEK293 cells; 12.5 nM): 89.50% | HEK293 cell viability (HEK293 cells; 25 nM): 86.03% | HEK293 cell viability (HEK293 cells; 50 nM): 88.49% | HEK293 cell viability (HEK293 cells; 100 nM): 84.87% | HEK293 cell viability (HEK293 cells; 200 nM): 83.54% | HEK293 cell viability (HEK293 cells; 400 nM): 81.17% | inhibitory rate on HEK293 cells compared with positive drugs (HEK293 cells; at any concentration): lower than that of PF-07321332 and S-217622 | IC50 (SARS-CoV-2 3CL^pro): 92.6 nM | inhibition at 0.0001 µM (SARS-CoV-2 3CL^pro): 1.68% | inhibition at 0.001 µM (SARS-CoV-2 3CL^pro): 2.35% | inhibition at 0.005 µM (SARS-CoV-2 3CL^pro): 7.62% | inhibition at 0.01 µM (SARS-CoV-2 3CL^pro): 10.9% | inhibition at 0.02 µM (SARS-CoV-2 3CL^pro): 15.2% | inhibition at 0.03 µM (SARS-CoV-2 3CL^pro): 20.8% | inhibition at 0.05 µM (SARS-CoV-2 3CL^pro): 26.2% | inhibition at 0.1 µM (SARS-CoV-2 3CL^pro): 59.3% | inhibition at 0.5 µM (SARS-CoV-2 3CL^pro): 82.5% | inhibition at 1 µM (SARS-CoV-2 3CL^pro): 96.2% | HEPG2 cell viability (HepG2 cells; 1.5625 nM): 97.09% | HEPG2 cell viability (HepG2 cells; 3.125 nM): 96.29% | HEPG2 cell viability (HepG2 cells; 6.25 nM): 97.83% | HEPG2 cell viability (HepG2 cells; 12.5 nM): 95.39% | HEPG2 cell viability (HepG2 cells; 25 nM): 90.35% | HEPG2 cell viability (HepG2 cells; 50 nM): 88.09% | HEPG2 cell viability (HepG2 cells; 100 nM): 87.72% | HEPG2 cell viability (HepG2 cells; 200 nM): 85.58% | HEPG2 cell viability (HepG2 cells; 400 nM): 82.62% | inhibitory rate on HepG2 cells compared with positive drugs (HepG2 cells; at any concentration): lower than that of PF-07321332 and S-217622 | A549 cell viability (A549 cells; 1.5625 nM): 99.46% | A549 cell viability (A549 cells; 3.125 nM): 98.65% | A549 cell viability (A549 cells; 6.25 nM): 98.82% | A549 cell viability (A549 cells; 12.5 nM): 98.93% | A549 cell viability (A549 cells; 25 nM): 98.71% | A549 cell viability (A549 cells; 50 nM): 98.76% | A549 cell viability (A549 cells; 100 nM): 98.69% | A549 cell viability (A549 cells; 200 nM): 95.01% | A549 cell viability (A549 cells; 400 nM): 93.02% | inhibitory rate on A549 cells compared with positive drugs (A549 cells; at any concentration): lower than that of PF-07321332 and S-217622

Cn1cc2cc(/N=c3\[nH]c(=O)n(Cc4cnn[nH]4)c(=O)n3Cc3ccccc3)c(Cl)cc2n1 [Compound 2]
IC50 (SARS-CoV-2 3CL^pro; class symbols): 500 to 1000 nM

Cc1ccc(Cn2c(=O)n(Cc3cnn[nH]3)c(=O)[nH]/c2=N\c2cc3cn(C)nc3cc2Cl)cc1 [Compound 3]
IC50 (SARS-CoV-2 3CL^pro; class symbols): 500 to 1000 nM

Cn1cc2cc(/N=c3\[nH]c(=O)n(Cc4cnn[nH]4)c(=O)n3Cc3ccc(C(C)(C)C)cc3)c(Cl)cc2n1 [Compound 4]
IC50 (SARS-CoV-2 3CL^pro; class symbols): 500 to 1000 nM

Cn1cc2cc(/N=c3\[nH]c(=O)n(Cc4cnn[nH]4)c(=O)n3Cc3ccc([N+](=O)[O-])cc3)c(Cl)cc2n1 [Compound 5]
IC50 (SARS-CoV-2 3CL^pro; class symbols): 200 to 500 nM

COc1ccc(Cn2c(=O)n(Cc3cnn[nH]3)c(=O)[nH]/c2=N\c2cc3cn(C)nc3cc2Cl)cc1 [Compound 6]
IC50 (SARS-CoV-2 3CL^pro; class symbols): > 1000 nM

Cn1cc2cc(/N=c3\[nH]c(=O)n(Cc4cnn[nH]4)c(=O)n3Cc3ccc(OC(F)(F)F)cc3)c(Cl)cc2n1 [Compound 7]
IC50 (SARS-CoV-2 3CL^pro): < 100 nM | IC50 (SARS-CoV-2 3CL^pro; class symbols): < 100 nM

Cn1cc2cc(/N=c3\[nH]c(=O)n(Cc4cnn[nH]4)c(=O)n3Cc3ccc(F)cc3)c(Cl)cc2n1 [Compound 8]
IC50 (SARS-CoV-2 3CL^pro; class symbols): 200 to 500 nM

Cn1cc2cc(/N=c3\[nH]c(=O)n(Cc4cnn[nH]4)c(=O)n3Cc3ccc(Cl)cc3)c(Cl)cc2n1 [Compound 9]
IC50 (SARS-CoV-2 3CL^pro; class symbols): 200 to 500 nM

Cn1cc2cc(/N=c3\[nH]c(=O)n(Cc4cnn[nH]4)c(=O)n3Cc3ccc(C(F)(F)F)cc3)c(Cl)cc2n1 [Compound 12]
HEK293 cell viability (HEK293 cells; 1.5625 nM): 93.67% | HEK293 cell viability (HEK293 cells; 3.125 nM): 93.03% | HEK293 cell viability (HEK293 cells; 6.25 nM): 92.31% | HEK293 cell viability (HEK293 cells; 12.5 nM): 90.69% | HEK293 cell viability (HEK293 cells; 25 nM): 84.22% | HEK293 cell viability (HEK293 cells; 50 nM): 82.91% | HEK293 cell viability (HEK293 cells; 100 nM): 81.24% | HEK293 cell viability (HEK293 cells; 200 nM): 80.57% | HEK293 cell viability (HEK293 cells; 400 nM): 78.23% | HEK293 cell viability compared with positive drugs (HEK293 cells; at 12.5 nM and lower): higher than that of PF-07321332 and S-217622 | toxicity on HEK293 cells compared with positive drugs (HEK293 cells; at 400 nM and 200 nM): slightly higher than that of PF-07321332 and S-217622 | IC50 (SARS-CoV-2 3CL^pro): 178 nM | inhibition at 0.0001 µM (SARS-CoV-2 3CL^pro): 0.76% | inhibition at 0.001 µM (SARS-CoV-2 3CL^pro): 2.33% | inhibition at 0.005 µM (SARS-CoV-2 3CL^pro): 5.73% | inhibition at 0.01 µM (SARS-CoV-2 3CL^pro): 8.52% | inhibition at 0.02 µM (SARS-CoV-2 3CL^pro): 12.1% | inhibition at 0.03 µM (SARS-CoV-2 3CL^pro): 16.5% | inhibition at 0.05 µM (SARS-CoV-2 3CL^pro): 21.2% | inhibition at 0.1 µM (SARS-CoV-2 3CL^pro): 37.2% | inhibition at 0.5 µM (SARS-CoV-2 3CL^pro): 68.7% | inhibition at 1 µM (SARS-CoV-2 3CL^pro): 88.6% | HEPG2 cell viability (HepG2 cells; 1.5625 nM): 95.73% | HEPG2 cell viability (HepG2 cells; 3.125 nM): 95.07% | HEPG2 cell viability (HepG2 cells; 6.25 nM): 93.31% | HEPG2 cell viability (HepG2 cells; 12.5 nM): 90.22% | HEPG2 cell viability (HepG2 cells; 25 nM): 88.36% | HEPG2 cell viability (HepG2 cells; 50 nM): 86.83% | HEPG2 cell viability (HepG2 cells; 100 nM): 86.63% | HEPG2 cell viability (HepG2 cells; 200 nM): 81.38% | HEPG2 cell viability (HepG2 cells; 400 nM): 76.67% | HepG2 cell viability compared with positive drugs (HepG2 cells; at 12.5 nM and lower): higher than that of PF-07321332 and S-217622 | toxicity on HepG2 cells compared with positive drugs (HepG2 cells; at 400 nM and 200 nM): slightly higher than that of PF-07321332 and S-217622 | A549 cell viability (A549 cells; 1.5625 nM): 98.52% | A549 cell viability (A549 cells; 3.125 nM): 97.34% | A549 cell viability (A549 cells; 6.25 nM): 96.55% | A549 cell viability (A549 cells; 12.5 nM): 97.32% | A549 cell viability (A549 cells; 25 nM): 96.21% | A549 cell viability (A549 cells; 50 nM): 98.03% | A549 cell viability (A549 cells; 100 nM): 96.61% | A549 cell viability (A549 cells; 200 nM): 94.13% | A549 cell viability (A549 cells; 400 nM): 90.13% | A549 cell viability compared with positive drugs (A549 cells; at 12.5 nM and lower): higher than that of PF-07321332 and S-217622 | toxicity on A549 cells compared with positive drugs (A549 cells; at 400 nM and 200 nM): slightly higher than that of PF-07321332 and S-217622

Cc1cc(C)cc(Cn2c(=O)n(Cc3cnn[nH]3)c(=O)[nH]/c2=N\c2cc3cn(C)nc3cc2Cl)c1 [Compound 13]
IC50 (SARS-CoV-2 3CL^pro; class symbols): 500 to 1000 nM

From US11612603B1, “3-triazolyl methyl-1,3,5-triazine-2,4-dione compounds and preparation method and application thereof” (priority 2022, dated 2023)
